Source: patent US20080076824A1, “Compounds That Inhibit Replication Of Human Immunodeficiency Virus” (priority 2004, published 2008)
Where a name gives a salt, the structure may show the parent alone. Read-outs that look alike come from different tables or passages of the source. Residues, ends and D or L forms follow the SMILES beside them.

Assays:
human PBMC = experiment: Mitogenic activity assay, [3H]dThd incorporation in human PBMC with or without PHA; format: cell-based; settings: concentrations up to 200 μg/ml, absence of PHA
Protocol: The mitogenic activity assay was conducted as follows. Human PBMC were isolated from buffy coats and brought in RPMI-1640 cell culture medium supplemented with 10% FCS and 2 mM L-glutamine. The cell cultures were exposed to several concentrations of the test compounds for 3 days in the absence or presence of PHA (phytohemagglutinin) (Murex Biotech Ltd., Dartford, UK) at 2 μg/ml. Subsequently, 0.25 μCi [CH3^−3H]dThd was added and, after 20 hr incubation at 37° C., the cells were precipitated in the presence of 10% TCA and the precipitate was washed twice with 10% TCA, twice with 5% TCA and once with 70% ethanol. The precipitate, containing [^3H]DNA, was then examined for radioactivity in a liquid scintillation counter.

HIV-1 (IIIB) = experiment: microbe, parasite or virus in culture; settings: Human immunodeficiency virus 1, IIIB, CCRF-CEM
C8166 cells = experiment: Cytotoxicity (CC50) in C8166 cells; format: cell-based
[1] = Conversion of G-NH2 to modified G-NH2 by pig plasma (cation exchange HPLC); format: in vitro ADME; settings: 37° C.
Protocol: Various concentrations of G-NH2 were mixed with either 90% pig plasma or 90% dialyzed pig plasma in PBS and the reactions were conducted at 37° C. for 24 hours. Subsequently, aliquots of the mixtures were separated by cation exchange HPLC, as described previously, and the conversion of G-NH2 to modified G-NH2 was evaluated. […] Saturation of the enzyme activity of cofactor(s) in pig plasma (90% in PBS) occurred between 1,000 μM and 10,000 μM G-NH2.

[2] = Conversion of radiolabeled G-NH2 to modified G-NH2 by human sera; format: in vitro ADME; settings: 10% human serum in PBS, 37° C., 24 hours, each of 10 samples
Protocol: Several lots of human sera and fetal bovine sera were analyzed for their ability to convert G-NH2 to modified G-NH2. Radiolabeled cation exchange HPLC purified G-NH2 (see EXAMPLE 3) was incubated with the various sera at a 10% final concentration in PBS at 37° C. for 15 minutes and 1, 6, 24, or 72 hours. Subsequently, the amount of radiolabeled modified G-NH2 was evaluated using the cation exchange HPLC approach described above.

[3] = Conversion of [14C]G-NH2 to Metabolite X by sera of different animals; format: in vitro ADME
Protocol: Next, an evaluation of sera obtained from other animals was analyzed for their ability to convert G-NH2 to modified G-NH2. Serum obtained from pigs (PS), mice (MS), dogs (CS), cats (FS), horse (ES), and monkey (SS) was incubated with HPLC purified G-NH2 and at 15 minutes, 1 hour, 6 hours, and/or 24 hours an aliquot of the mixture was removed and analyzed by cation exchange HPLC, as described above. Approximately a 10% dilution of serum in PBS was used.
Approximately, 0.1 μCi [^14C]G-NH2 ([…]) is added to a reaction mixture containing 10% serum in phosphate-buffered saline (PBS) (pH 7.5) (total volume: 100 μl). The reaction was carried out for different time periods. Sera, used in the study were from human, murine (mouse and rat), avian (chicken), rabbit, simian, feline, canine, porcine, equine or bovine (cow) origin. At the completion of the time period for each reaction, approximately 200 μl cold methanol was added to stop the reaction and the samples were placed on ice for 10 minutes. Subsequently, the samples were subjected to centrifugation (5 min, 15000 rpm). The supernatants were then injected on a Cation Exchange Column (Whatman) (Partisphere-SCX) and G-NH2 and Metabolite X were separated on a gradient of ammonium phosphate buffer 5 mM pH 3.5 (Buffer A) and ammonium phosphate buffer 0.300 M pH 3.5 (Buffer B) [10 min A+6 min to 83% B+17% H2O) (C)+2 min C-+6 min to A)]. […]

[4] = Conversion of G-NH2 to Metabolite X in 10% pig serum with and without reducing agents; format: in vitro ADME; settings: absence of GTT, NAC and DTT
Protocol: In another set of experiments, the conversion of GNH2 to modified glycinamide (Metabolite X) in pig serum (10%) was monitored over time in the presence and absence of differing concentrations (e.g., 40 mM, 10 mM, 4 mM) of reducing agents (glutathione (GTT), N-acetyl cysteine (NAC), and dithiothreitol (DTT)). […] See Han et al., Bull. Korean. Chem. Soc., 17, 659-661 (1996). In the absence of GTT, NAC and DTT, almost 100% coversion to Metabolite X was seen.

[5] = Conversion of [14C]G-NH2 by Phaseolus vulgaris root nodule extract; format: biochemical; settings: overnight, 37° C.
Protocol: An extract from Phaseolus vulgaris root nodule was prepared as follows: approximately 20 g of root nodules of 3-4 week old kidney beans (Phaseolus vulgaris) were removed, washed with potassium phosphate buffer 50 mM pH 8.0 and homogenized with 30 ml buffer. Then, the homogenate was sonicated (3×20 sec) on ice, and centrifuged for 15 min, 4° C. at 3,000 rpm. The supernatant was then centrifuged at 15,000 rpm during 20 min at 4° C., aliquoted and stored at −80° C. before use. To the reaction mixture (50 mM potassium phosphate buffer pH 8.0) was added: 0.1 μCi [^14C]G-NH2 and 50 μl extract supernatant (100%, 50% and 20%) and 50 μl buffer. The reaction proceeded overnight (˜18 hrs) at 37° C. Then, methanol was added (200 μl) to stop the reaction and the reaction mixture was subjected to cation exchange column chromatography, as described above. A reaction mixture containing bovine serum was also evaluated as a control.

HIV (SF2 virus) = experiment: HIV infectivity assay, SF2-infected H9 cells, visible syncytia; format: cell-based; settings: for Visible syncytia: H9/SF2, day 11
[6] = system: HIV-1 laboratory strains and clinical isolates; settings: wide variety of HIV-1 laboratory strains and clinical isolates; cited from earlier work

Structure (SMILES): NC(=O)C(N)O (stereo not drawn) [AlphaHGA, α-Hydroxy-glycinamide hydrochloride]
- mitogenic activity against human PBMCs (human PBMC): non-mitogenic
- EC50 (HIV-1 (IIIB); read-out: EC50 (CEM) HIV-1 (IIIB)): 40 ± 8.2 µM
- EC50 (HIV-1 (IIIB); read-out: EC50 (CEM) HIV-1(IIIB)): 43 ± 5.8 µM

Structure (SMILES): NCC(N)=O [G-NH2, glycinamide]
- CC50 (C8166 cells): > 2000 µM
- conversion to modified G-NH2 (24 hr) (percent conversion) Pig plasma ([1]; 18 μM G-NH2, plasma 90% in PBS): 99.7%
- conversion to modified G-NH2 (24 hr) (percent conversion) Pig plasma ([1]; 100 μM G-NH2, plasma 90% in PBS): 99.7%
- conversion to modified G-NH2 (24 hr) (percent conversion) Pig plasma ([1]; 1,000 μM G-NH2, plasma 90% in PBS): 98.7%
- conversion to modified G-NH2 (24 hr) (percent conversion) Pig plasma ([1]; 10,000 μM G-NH2, plasma 90% in PBS): ˜24.5%
- conversion of G-NH2 to modified G-NH2 [2]: less than 10%
- conversion to modified glycinamide ([3]; human, mouse, rat, and avian sera): did not effectively catalyze
- conversion to Metabolite X ([3]; rabbit, simian, feline, canine, porcine, equine and bovine sera): readily converted to Metabolite X
- conversion to Metabolite X [4]: ~100%
- conversion of glycinamide to modified glycinamide [5]: efficiently converts glycinamide to modified glycinamide
- Visible syncytia (HIV (SF2 virus); 100 μM in boiled RPMI++): positive
- Visible syncytia (HIV (SF2 virus); 100 μM in normal RPMI++ (10% FCS)): negative
- inhibition of replication and/or propagation of HIV by visual inspection (HIV (SF2 virus); boiled fetal calf serum): did not

Structure (SMILES): NCC(=O)N1CCC[C@H]1C(=O)NCC(N)=O [GPG-NH2, glycylprolylglycinamide] (H-Gly-Pro-Gly-NH2)
- concentration range blocking HIV-1 [6]: 2 to 40 µM
